Where a name gives a salt, the structure may show the parent alone. Read-outs that look alike come from different tables or passages of the source.

Results on 44 molecules are retold here after patent publication US5654308A (priority 1990, dated 1997).

The target of this assay is T1, acetylcholine esterase (Mus musculus, UniProt P21836).
T1 construct: using a mouse brain homogenate as the acetylcholine esterase source; from tissue; host or cells: mouse brain homogenate
Description: biochemical.

[1] abbreviates: read-out: AChE inhibiting activity IC50.

T1 sequence (P21836 32-614): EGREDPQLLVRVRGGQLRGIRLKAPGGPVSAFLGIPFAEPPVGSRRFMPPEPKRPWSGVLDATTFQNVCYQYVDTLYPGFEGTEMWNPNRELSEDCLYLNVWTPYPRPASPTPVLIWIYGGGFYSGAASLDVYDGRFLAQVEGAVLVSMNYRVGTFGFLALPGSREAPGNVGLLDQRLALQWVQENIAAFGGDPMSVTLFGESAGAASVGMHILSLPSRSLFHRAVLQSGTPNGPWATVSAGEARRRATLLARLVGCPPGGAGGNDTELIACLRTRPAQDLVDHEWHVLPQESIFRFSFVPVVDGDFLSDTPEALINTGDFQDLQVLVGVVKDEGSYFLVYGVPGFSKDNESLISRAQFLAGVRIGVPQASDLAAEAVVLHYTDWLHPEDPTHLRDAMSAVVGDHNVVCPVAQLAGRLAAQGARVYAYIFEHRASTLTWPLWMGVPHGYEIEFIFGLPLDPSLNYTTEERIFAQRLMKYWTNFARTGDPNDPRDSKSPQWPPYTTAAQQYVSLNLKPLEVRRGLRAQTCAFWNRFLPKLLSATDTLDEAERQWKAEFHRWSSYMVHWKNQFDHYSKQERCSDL

In turn, `COc1cccc2c1CN(CCC1CCN(Cc3ccccc3)CC1)C(=O)O2` [Example 1, 3-[2-(1-Benzyl-4-piperidyl)ethyl]-5-methoxy-2H-3,4-dihydro-1,3-benzoxazin-2-one hydrochloride] yielded an IC50 of 0.03 nM.

`O=C1Oc2ccccc2CN1CCC1CCN(Cc2ccccc2)CC1` [Example 2, 3-[2-(1-Benzyl-4-piperidyl)ethyl]-2H-3,4-dihydro-1,3-benzoxazin-2-one hydrochloride] gave an IC50 of 4.94 nM.

As for `O=c1oc2ccccc2c(=O)n1CCC1CCN(Cc2ccccc2)CC1` [Example 3, 3-[2-(1-Benzyl-4-piperidyl)ethyl]-2H-3,4-dihydro-1,3-benzoxazine-2,4-dione hydrochloride], half-maximal inhibition (IC50) was put at 8.52 nM.

`COc1ccc2c(c1)CN(CCC1CCN(Cc3ccncc3)CC1)C(=O)O2` [Example 4, 3-{2-[1-(4-Pyridylmethyl)-4-piperidyl]ethyl}-6-methoxy-2H-3,4-dihydro-1,3-benzoxazin-2-one dihydrochloride] yielded an IC50 of 7.93 nM.

`COc1ccc2c(c1)CN(CCC1CCN(CC3OCCO3)CC1)C(=O)O2` [Example 5, 3-{2-[1-(1,3-Dioxolan-2-ylmethyl)}-4-piperidine]ethyl}-6-methoxy-2H-3,4-dihydro-1,3-benzoxazin-2-one hydrochloride]: the IC50 under setting [1] was determined as 49.5 nM.

`COc1ccc2oc(=O)n(CCC3CCN(CC4CCCC4)CC3)c(=O)c2c1` [Example 6, 3-[2-(1-Cyclopentylmethyl-4-piperidyl)-6-methoxy-ethyl]-2H-3,4-dihydro-1,3-benzoxazine-2,4-dione hydrochloride] displayed a concentration for half-maximal inhibition (IC50) of 4.86 nM.

In turn, `COc1ccc2oc(=O)n(CCC3CCN(CC4OCCO4)CC3)c(=O)c2c1` [Example 7, 3-{2-[1-(1,3-Dioxolan-2-ylmethyl)-4-piperidyl]ethyl}-6-methoxy-2H-3,4-dihydro-1,3-benzoxazine-2,4-dione hydrochloride] returned an IC50 of 124 nM.

Consider `Cc1ccc2c(n1)CN(CCC1CCN(Cc3ccccc3)CC1)C(=S)O2` [Example 9, 3-[2-(1-Benzyl-4-piperidyl)ethyl]-2H-3,4-dihydro-6-methylpyrido[2,3-d]-m-oxazine-2-thione hydrochloride], for which the midpoint of inhibition, the IC50, lay at 8.38 nM.

Consider `O=c1[nH]c2nccnc2c(=O)n1CCC1CCN(Cc2ccccc2)CC1` [Example 10, 3-[2-{4 [(1-Benzyl)piperidyl]}ethyl]pyrazino[2,3-d]-pyprimidine-2,4-dione fumarate], for which the midpoint of inhibition, the IC50, lay at 31.8 nM.

Consider `CC1(O)c2nccnc2C(=O)N1CCC1CCN(Cc2ccccc2)CC1` (centres unmarked) [Example 11, 1-[2-{4-[(1-Benzyl)piperidyl]}ethyl]-7-hydroxy-7-methylpiperazino[2,3-c]pyrrolidin-2-one], for which the IC50 was 99.6 nM.

On to `C=C1c2nccnc2C(=O)N1CCC1CCN(Cc2ccccc2)CC1` [Example 12, 1-[2-{4-[(1-Benzyl)piperidyl]}ethyl]-7-methylenepiperazino[2,3-c]pyrrolidin-2-one fumarate], for which it took 1.82 nM to reach half-maximal inhibition (IC50).

On to `O=C(c1ccccc1)C1CC(=O)N(CCC2CCN(Cc3ccccc3)CC2)C1` (centres unmarked) [Example 13, 1-[2-{4-[(1-Benzyl)piperidyl]}ethyl]-4-benzoylpyrrolidin-2-one hydrochloride], for which the IC50 under setting [1] was found to be 20.3 nM.

`O=C1CC(Cc2ccccc2)CN1CCC1CCN(Cc2ccccc2)CC1` (centres unmarked) [Example 14, 1-[2-{(4-[(1-Benzyl)piperidyl]}ethyl]-4-benzylpyrrolidin-2-one hydrochloride] came in with an IC50 of 23.8 nM.

Consider `O=C1CCCc2cccnc2N1CCC1CCN(Cc2ccccc2)CC1` [Example 20], for which the 50% inhibitory concentration (IC50) under setting [1] amounted to 69.1 nM.

For the molecule `COc1ccc2c(c1)OC(=O)N(CCC1CCN(Cc3ccccc3)CC1)C2` [Example 24], the IC50 was determined as 1.87 nM.

Turning to `COc1cccc2c1OC(=O)N(CCC1CCN(Cc3ccccc3)CC1)C2` [Example 25], the half-maximal inhibitory concentration (IC50) is 2.74 nM.

For the molecule `COc1ccc2c(c1)CN(CCC1CCN(Cc3ccccc3)CC1)C(=O)O2` [Example 26], the IC50 worked out at 0.5 nM.

`C=C1c2ccccc2C(=O)N1CCC1CCN(Cc2ccccc2)CC1` [Example 27] returned an IC50 of 45.4 nM.

`COc1cc(OC)c2c(c1)OC(=O)N(CCC1CCN(Cc3ccccc3)CC1)C2` [Example 28] showed an IC50 of 0.38 nM.

Molecule `O=C1Oc2c(Cl)cc(Cl)cc2CN1CCC1CCN(Cc2ccncc2)CC1` [Example 30] returned a 50% inhibitory concentration (IC50) of 29.1 nM.

With `O=C1Oc2ccc([N+](=O)[O-])cc2CN1CCC1CCN(Cc2ccccc2)CC1` [Example 31], the IC50 is 0.58 nM.

In turn, `O=C1Oc2ccc(Cl)cc2CN1CCC1CCN(Cc2ccccc2)CC1` [Example 32] came in with an IC50 of 1.39 nM.

`O=C1Oc2ccc([N+](=O)[O-])cc2CN1CCC1CCN(Cc2ccncc2)CC1` [Example 34]: half-maximal inhibition (IC50) required 13.8 nM.

In turn, `Nc1ccc2c(c1)CN(CCC1CCN(Cc3ccccc3)CC1)C(=O)O2` [Example 35] returned an IC50 of 1.85 nM.

Consider `CC(=O)Nc1ccc2c(c1)CN(CCC1CCN(Cc3ccccc3)CC1)C(=O)O2` [Example 36], for which inhibition was half-maximal at 1.17 nM (IC50).

For `Cc1ccc2oc(=O)n(CCC3CCN(Cc4ccccc4)CC3)c(=O)c2c1` [Example 37], inhibition was half-maximal at 2.97 nM (IC50).

In turn, `COc1ccc2oc(=O)n(CCC3CCN(Cc4ccccc4)CC3)c(=O)c2c1` [Example 38] came in with a half-maximal inhibitory concentration (IC50) of 0.7 nM.

Molecule `O=c1oc2ccc(F)cc2c(=O)n1CCC1CCN(Cc2ccccc2)CC1` [Example 39] displayed a 50% inhibitory concentration (IC50) of 7.79 nM.

For the molecule `O=c1oc2ccc(F)cc2c(=O)n1CCC1CCN(CC2OCCO2)CC1` [Example 40], the concentration for half-maximal inhibition (IC50) came out at 1020 nM.

For the molecule `COc1ccc2c(c1)CN(CCC1CCN(CC3CCCC3)CC1)C(=O)O2` [Example 41], the half-maximal inhibitory concentration (IC50) is 4.64 nM.

`COc1ccc2c(c1)CN(CCC1CCN(CC3CCCCC3)CC1)C(=O)O2` [Example 42] came in with an IC50 of 3.92 nM.

In the case of `COc1ccc2oc(=O)n(CCC3CCN(CC4CCCCC4)CC3)c(=O)c2c1` [Example 43], half-maximal inhibition (IC50) required 2.96 nM.

As to `COc1ccc2c(c1)CN(CCC1CCN(Cc3ccoc3)CC1)C(=O)O2` [Example 44], under setting [1], the IC50 came out at 5.04 nM.

For `COc1ccc2oc(=O)n(CCC3CCN(Cc4ccoc4)CC3)c(=O)c2c1` [Example 46], the concentration for half-maximal inhibition (IC50) was 11.4 nM.

In turn, `COc1cccc2c1CN(CCC1CCN(CC3OCCO3)CC1)C(=O)O2` [Example 52] gave a half-inhibitory concentration (IC50) of 64.9 nM.

On to `COc1ccc2oc(=O)n(CCC3CCN(Cc4cccc(F)c4)CC3)c(=O)c2c1` [Example 53], for which inhibition was half-maximal at 0.18 nM (IC50).

For `COc1ccc2c(c1)CN(CCC1CCN(Cc3cccc(F)c3)CC1)C(=O)O2` [Example 54], half-maximal inhibition (IC50) was put at 0.34 nM.

In the case of `Cc1ccc2oc(=O)n(CCC3CCN(Cc4ccccc4)CC3)c(=O)c2n1` [Example 64], the midpoint of inhibition, the IC50, lay at 9.11 nM.

`O=C(c1ccccc1)C1CC(=O)N(C2CCN(Cc3ccccc3)CC2)C1` (centres unmarked) [Example 65] showed a 50% inhibitory concentration (IC50) of 34000 nM.

The molecule `O=C1Nc2ncccc2CN1CCC1CCN(CC2OCCO2)CC1` [Example 66] displayed a half-inhibitory concentration (IC50) of 288 nM.

In the case of `O=c1[nH]c2c([N+](=O)[O-])cccc2c(=O)n1CCC1CCN(CC2OCCO2)CC1` [Example 68], the IC50 under setting [1] was found to be 220 nM.

`O=c1[nH]c2ncccc2c(=O)n1CCC1CCN(Cc2ccncc2)CC1` [Example 71] had a concentration for half-maximal inhibition (IC50) of 137 nM.

`CCOc1ccccc1C(=O)C1CC(=O)N(CCC2CCN(Cc3ccccc3)CC2)C1` (centres unmarked) [Example 74] showed a half-inhibitory concentration (IC50) of 27.7 nM.

Take `CCOc1ccc(C(=O)C2CC(=O)N(CCC3CCN(Cc4ccccc4)CC3)C2)cc1` (centres unmarked) [Example 75]: the half-maximal inhibitory concentration (IC50) was determined as 20.8 nM.
